The structures appear in SMILES notation.

The results in this text go back to ChEMBL document CHEMBL4308841, “Synthesis, in vitro antiproliferative activity, and kinase inhibitory effects of pyrazole-containing diarylureas and diarylamides” (Eur J Med Chem, 2018).

In test [1] the test system is NCI-H522. Nature of the test: Growth inhibition of human NCI-H522 cells assessed as cell growth at 10 uM incubated for 48 hrs by sulforhodamine B assay relative to control. Format: functional. Conditions: NCI-H522, 48 h, read-out: Activity. (Sulforhodamine B stains cellular protein and so reports cell mass.)
Test [2] deals with HT-29. Put plainly: Growth inhibition of human HT-29 cells assessed as cell growth at 10 uM incubated for 48 hrs by sulforhodamine B assay relative to control. The format is functional. The settings on record: HT-29, 48 h, read-out: Activity.
For another test, the system named is SK-MEL-2. Put plainly: Growth inhibition of human SK-MEL-2 cells assessed as cell growth at 10 uM incubated for 48 hrs by sulforhodamine B assay relative to control. Format: functional. Conditions: SK-MEL-2, 48 h, read-out: Activity.
The next test deals with NCI-H226. Put plainly: Growth inhibition of human NCI-H226 cells incubated for 48 hrs by sulforhodamine B assay. Format: functional, cell-based. Conditions: NCI-H226, 48 h.
A further test relates to SW-620. Put plainly: Growth inhibition of human SW620 cells incubated for 48 hrs by sulforhodamine B assay. Format: functional, cell-based. Conditions: SW-620, 48 h.
The subject of test [3] is CCRF-CEM. Nature of the test: Growth inhibition of human CCRF-CEM cells assessed as cell growth at 0.01 uM incubated for 48 hrs by sulforhodamine B assay relative to control. Format: functional. The settings on record: read-out: Activity.
Another test concerns SF-268. Put plainly: Growth inhibition of human SF268 cells assessed as cell growth at 0.01 uM incubated for 48 hrs by sulforhodamine B assay relative to control. Format: functional. Conditions: SF-268, 48 h, read-out: Activity.
The subject of another test is SF-539. Nature of the test: Growth inhibition of human SF539 cells assessed as cell growth at 0.01 uM incubated for 48 hrs by sulforhodamine B assay relative to control. Format: functional. The settings on record: SF-539, 48 h, read-out: Activity.
A further test concerns UACC-257. Nature of the test: Growth inhibition of human UACC257 cells assessed as cell growth at 0.01 uM incubated for 48 hrs by sulforhodamine B assay relative to control. The format is functional. The settings on record: UACC-257, 48 h, read-out: Activity.
In another test the test system is RXF 393. Nature of the test: Growth inhibition of human RXF393 cells assessed as cell growth at 0.01 uM incubated for 48 hrs by sulforhodamine B assay relative to control. The settings on record: RXF 393, 48 h, read-out: Activity. The format is functional.
The test system of the next test is PC-3. Nature of the test: Growth inhibition of human PC3 cells assessed as cell growth at 0.01 uM incubated for 48 hrs by sulforhodamine B assay relative to control. Format: functional. The settings on record: PC-3, 48 h, read-out: Activity.
In another test the test system is MDA-MB-468. Put plainly: Growth inhibition of human MDA-MB-468 cells assessed as cell growth at 0.01 uM incubated for 48 hrs by sulforhodamine B assay relative to control. The format is functional. The settings on record: MDA-MB-468, 48 h, read-out: Activity.
The subject of test [4] is CCRF-CEM. Nature of the test: Growth inhibition of human CCRF-CEM cells assessed as cell growth at 0.1 uM incubated for 48 hrs by sulforhodamine B assay relative to control. Format: functional. The settings on record: read-out: Activity.
The test system of another test is NCI-H460. Put plainly: Growth inhibition of human NCI-H460 cells assessed as cell growth at 0.1 uM incubated for 48 hrs by sulforhodamine B assay relative to control. The settings on record: NCI-H460, 48 h, read-out: Activity. Format: functional.
Test [5] has as its system NCI-H522. Nature of the test: Growth inhibition of human NCI-H522 cells assessed as cell growth at 0.1 uM incubated for 48 hrs by sulforhodamine B assay relative to control. Format: functional. Conditions: NCI-H522, 48 h, read-out: Activity.
A further test relates to HCT-15. Put plainly: Growth inhibition of human HCT15 cells assessed as cell growth at 0.1 uM incubated for 48 hrs by sulforhodamine B assay relative to control. The format is functional. Conditions: HCT-15, 48 h, read-out: Activity.
Test [6] deals with HT-29. Nature of the test: Growth inhibition of human HT-29 cells assessed as cell growth at 0.1 uM incubated for 48 hrs by sulforhodamine B assay relative to control. The settings on record: HT-29, 48 h, read-out: Activity. Format: functional.
The test system of another test is KM12. Put plainly: Growth inhibition of human KM12 cells assessed as cell growth at 0.1 uM incubated for 48 hrs by sulforhodamine B assay relative to control. The settings on record: KM12, 48 h, read-out: Activity. The format is functional.
Another test has as its system SK-MEL-5. Put plainly: Growth inhibition of human SK-MEL-5 cells assessed as cell growth at 0.1 uM incubated for 48 hrs by sulforhodamine B assay relative to control. The format is functional. Conditions: SK-MEL-5, 48 h, read-out: Activity.
Test [7] concerns CCRF-CEM. Nature of the test: Growth inhibition of human CCRF-CEM cells assessed as cell growth at 1 uM incubated for 48 hrs by sulforhodamine B assay relative to control. Format: functional. Conditions: read-out: Activity.
In a further test the test system is HL-60(TB). Nature of the test: Growth inhibition of human HL-60(TB) cells assessed as cell growth at 1 uM incubated for 48 hrs by sulforhodamine B assay relative to control. The format is functional. The settings on record: HL-60, 48 h, read-out: Activity.
A further test concerns MOLT-4. Put plainly: Growth inhibition of human MOLT4 cells assessed as cell growth at 1 uM incubated for 48 hrs by sulforhodamine B assay relative to control. The format is functional. Conditions: MOLT-4, 48 h, read-out: Activity.
Another test has as its system HCC 2998. Put plainly: Growth inhibition of human HCC2998 cells assessed as cell growth at 1 uM incubated for 48 hrs by sulforhodamine B assay relative to control. Conditions: HCC 2998, 48 h, read-out: Activity. The format is functional.
For test [8], the system named is A498. Put plainly: Growth inhibition of human A498 cells assessed as cell growth at 1 uM incubated for 48 hrs by sulforhodamine B assay relative to control. The format is functional. The settings on record: A498, 48 h, read-out: Activity.
The subject of a further test is SR. Nature of the test: Growth inhibition of human SR cells assessed as cell growth at 100 uM incubated for 48 hrs by sulforhodamine B assay relative to control. Format: functional. The settings on record: read-out: Activity.
For the next test, the system named is SNB-75. Put plainly: Growth inhibition of human SNB75 cells assessed as cell growth at 100 uM incubated for 48 hrs by sulforhodamine B assay relative to control. Format: functional. Conditions: SNB-75, 48 h, read-out: Activity.
In the next test the test system is UACC-62. Nature of the test: Growth inhibition of human UACC62 cells assessed as cell growth at 100 uM incubated for 48 hrs by sulforhodamine B assay relative to control. Format: functional. The settings on record: UACC-62, 48 h, read-out: Activity.
Another test relates to OVCAR-4. Nature of the test: Growth inhibition of human OVCAR4 cells assessed as cell growth at 100 uM incubated for 48 hrs by sulforhodamine B assay relative to control. Conditions: OVCAR-4, 48 h, read-out: Activity. The format is functional.
Another test concerns OVCAR-8. Put plainly: Growth inhibition of human OVCAR8 cells assessed as cell growth at 100 uM incubated for 48 hrs by sulforhodamine B assay relative to control. The settings on record: OVCAR-8, 48 h, read-out: Activity. Format: functional.
In a further test the test system is SK-OV-3. Put plainly: Growth inhibition of human SKOV3 cells assessed as cell growth at 100 uM incubated for 48 hrs by sulforhodamine B assay relative to control. Format: functional. The settings on record: SK-OV-3, 48 h, read-out: Activity.
In test [9] the test system is A498. Nature of the test: Growth inhibition of human A498 cells assessed as cell growth at 100 uM incubated for 48 hrs by sulforhodamine B assay relative to control. Format: functional. Conditions: A498, 48 h, read-out: Activity.
A further test concerns SN12C. Put plainly: Growth inhibition of human SN12C cells assessed as cell growth at 100 uM incubated for 48 hrs by sulforhodamine B assay relative to control. The format is functional. Conditions: read-out: Activity.

Turning to `COc1cc(Cl)cc(-c2nn(-c3cccc(NC(=O)c4ccc(Cl)c(Cl)c4)c3)cc2-c2ccncc2)c1`, the growth at 10 µM in the test on NCI-H522 [1] is 53.7%; in the test on HT-29 [2] it was 56.4%; in the test on SK-MEL-2 it was 78.4%.

As for `O=C(Nc1cccc(-n2cc(-c3ccncc3)c(-c3cc(O)cc(Cl)c3)n2)c1)Nc1ccc(Cl)c(Cl)c1`, the GI50 was 2.28 µM in the test on NCI-H226 (read-out: GI50), 2.29 µM in the test on NCI-H226 (read-out: pGI50 (converted)), 3.22 µM with SW-620 (read-out: GI50) and 3.24 µM in the test with SW-620 (read-out: pGI50 (converted)). Further, the LC50 with NCI-H226 (read-out: LC50), in the test on NCI-H226 (read-out: pLC50 (converted)), in the test on SW-620 (read-out: LC50) and with SW-620 (read-out: pLC50 (converted)) was > 100 µM each time. Also, the TGI is 71.6 µM in the test on NCI-H226 (read-out: TGI), 7.08 µM in the test with NCI-H226 (read-out: pTGI (converted)), 99.7 µM in the test with SW-620 (read-out: TGI) and 10 µM in the test with SW-620 (read-out: pTGI (converted)). For the same compound, the growth at 0.01 µM with CCRF-CEM [3] amounted to 96%; with SF-268, 94%; in the test on SF-539, 59%; in the test on UACC-257, 96%; with RXF 393, 93%; in the test on PC-3, 90%. In addition, in the test on MDA-MB-468, the growth at 0.01 µM is 92%. Further, the growth at 0.1 µM in the test with CCRF-CEM [4] is 95%; in the test on NCI-H460, 97%; with NCI-H522 [5], 92%; in the test on HCT-15, 95%; in the test with HT-29 [6], 97%; in the test on KM12, 100%. Besides, in the test with SK-MEL-5, the growth at 0.1 µM was determined as 92%. For the same compound, the growth at 1 µM with CCRF-CEM [7] was found to be 76%; with HL-60(TB), 106%; in the test with MOLT-4, 84%; in the test with HCC 2998, 96%; with A498 [8], 75%. Also, the growth at 100 µM with SR is -30%; with SNB-75 it was -15%; in the test on UACC-62, -74%; in the test on OVCAR-4, 9%; in the test with OVCAR-8 it was -38%; in the test with SK-OV-3, -22%. Also, the growth at 100 µM in the test on A498 [9] is -79%; with SN12C, -15%.
